Source: US11219625B2, “Inhibitors of N-linked glycosylation and methods using same” (YALE UNIVERSITY, priority 2015, dated 2022)

Columns and labels:
Assay type in all cases: cell-based
A549 cells = assay: MTT proliferation assay, A549; details: A549, 10 μM NGI-1 or 1 μM tunicamycin
Procedure: (§1) FIGS. 4A-4H illustrate the finding that NGI-1 blocks RTK driven proliferation. FIG. 4A illustrates western blot analysis of EGFR phosphorylation (Y1173) and gel mobility in PC9 (EGFR-mutant) and A549 (k-ras mutant) NSCLC cells after 10 μM NGI-1 treatment for 24 h. […] Actin expression was used as a control for protein loading. FIG. 4B illustrates MTT assays results of PC9 following treatment with 10 μM NGI-1 or 1 μM tunicamycin for a total of 5 d. Relative proliferation id reported in fold increase from day 0. FIG. 4C illustrates MTT assays results of A549 following treatment with 10 μM NGI-1 or 1 μM tunicamycin for a total of 5 d. Relative proliferation id reported in fold increase from day 0. FIG. 4D illustrates protein phosphorylation profiles of PC9 cells analyzed by phospho-protein array to assess the response of PC9 to 10 μM NGI-1 for 24 h. FIG. 4E illustrates protein phosphorylation profiles of A549 cells analyzed by phospho-protein array to assess the response of A549 to 10 μM NGI-1 for 24 h. […]
(§2) Growth rates were determined by CellTiter 96 NonRadioactive Cell Proliferation Assay (Promega; Madison, Wis. USA) according to the manufacturer's directions. […] Cell numbers were estimated after 0, 3, and 5 days by adding MTT [(3-(4,5-Dimethylthiazol-2-yl)-2,5-diphenyltetrazolium bromide] reagent to the wells 4 hours before taking the spectrophotometric reading (absorbance at 570 nm).

H2444 cells = assay: MTT proliferation assay, H2444; details: H2444, 10 μM NGI-1, 5 d
Procedure: as §1, §2

[1] = test system: lipid linked oligosaccharides (LLOs); assay: FACE analysis of lipid linked oligosaccharides; details: p<0.01
Procedure: Fluorophore assisted carbohydrate electrophoresis (FACE) was performed as previously described (Gao, et al., Glycobiology 2002, 12, 353-360; Gao, et al., J Biol Chem 2005, 280, 17901-17909). Control (Ac-Gln-Tyr-Thr-CONH2) and acceptor (Ac-Asn-Tyr-Thr-CONH2) peptides were used for permeabilized cell experiments. Metabolic labeling of Hela cells, transfection of prosaposin (pSAP) and steroid hormone binding globulin (SHBG) vectors, and knockdown of SIT3A and STT3B to monitor N-linked glycosylation knockdown were performed as described (Shrimal, et al., J Cell Biol 2013, 201, 81-95). Western blot analysis was performed as previously described (Bennett, et al., Transl Oncol 2013, 6, 382-391). The following primary antibodies were used: rabbit anti-EGFR (sc-03; Santa Cruz Biotechnology; 1:1000), rabbit anti-phospho (Tyr1173) EGF Receptor (Cell Signaling; 1:1000), rabbit anti-p21 Waf1/Cip1 (12D1; Cell Signaling; 1:1000), rabbit anti-Cyclin D1 (Cell Signaling; 1:1000), mouse anti-β-Actin (8H10D10; Cell Signaling; 1:1000). For phospho-protein array analysis, PC9 and A549 cells were cultured in 6-well plates in serum-containing medium and treated with or without 10 μM NGI-1 for 24 hours. […]

PC9 cells = assay: Cell cycle distribution by flow cytometry, PC9; details: PC9, NGI-1 24 h; control 65%; p<0.01
Procedure: FIGS. 5A-5G illustrate NGI-1 induces G1 arrest and senescence in EGFR addicted tumor cells. FIG. 5A illustrates cell cycle distribution of PC9 cells after 24 h NGI-1 treatment for 24 h determined by flow cytometry. […] FIG. 5B illustrates cell cycle distribution of A549 cells after 24 h NGI-1 treatment for 24 h determined by flow cytometry. FIG. 5C illustrates western blot time course of cyclin D1 expression in PC9 and A549 cells after NGI-1 treatment. FIG. 5D illustrates quantitative real-time PCR analysis of PC9 and A549 cells. A time course of cyclin D1 expression levels relative to GAPDH is represented. […] FIG. 5F illustrates senescence of PC9 cells explored by: cell autofluorescence, measured by flow cytometry using a detector for PE/YFP; lipofuscin accumulation, detected by confocal laser scanning microscopy using an excitation laser of 405 nm with acquired signals from spectrums of yellow 575-620 nm; and morphology changes, enlarged vs. flattened. […] Significance was calculated using a T test (*p<0.05. **p<0.01). FIG. 5G illustrates senescence of A549 cells explored by: cell autofluorescence, measured by flow cytometry using a detector for PE/YFP; lipofuscin accumulation, detected by confocal laser scanning microscopy using an excitation laser of 405 nm with acquired signals from spectrums of yellow 575-620 nm; and morphology changes, enlarged vs. flattened. […]

Cc1cnc(NC(=O)c2cc(S(=O)(=O)N(C)C)ccc2N2CCCC2)s1 [NGI-1, 5-(N,N-Dimethylsulfamoyl)-N-(5-methylthiazol-2-yl)-2-(pyrrolidin-1-yl)benzamide]
effect on proliferation, MTT (A549 cells): continued to proliferate | effect on proliferation, MTT (H2444 cells): insensitive to NGI-1 | increase of Glc3Man9Glcnac2 LLO levels [1]: 31% | cells in G1 (PC9 cells): 90%
